Data as given in the supplement of paper PMC10307832.

How the values were obtained:
Assay in all cases: relative viability (nuclei count vs DMSO), 5 days (fraction); higher = more cells survive
[1] = compound: C1/C(=C\C2=CC=CS2)/C(=O)/C(=C/C3=CC=CS3)/C1 + CC(=O)c1c(C)c2cnc(Nc3ccc(N4CCNCC4)cn3)nc2n(C2CCCC2)c1=O [Palbociclib] (partner 0.5 µM)
Procedure, shortened: (§1)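 Relative viability divides the nuclei count in treated wells by that in vehicle wells. Lung cancer cell lines were seeded in 1536-well plates, dosed by pin tool the next day, and fixed and stained after 5 days in one step with final 0.05% Triton X-100, 1% formaldehyde and 1 ug/ml Hoechst. Dosing was a single drug or a fixed anchor-drug dose plus five library-drug doses (not always all listed) in √10 steps, and values are medians of duplicate plates imaged at 4×.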

[2] = compound: C1/C(=C\C2=CC=CS2)/C(=O)/C(=C/C3=CC=CS3)/C1 + N=C(N)NC(=N)NCCc1ccccc1 [Phenformin] (partner 250 µM)
Procedure, shortened: as §1

[3] = compound: C1=CC(=CC=C1C2=CC(=C(S2)NC(=O)N)C(=O)N)F [TPCA-1] + C[C@@H](Oc1cc(-c2cnn(C3CCNCC3)c2)cnc1N)c1c(Cl)ccc(F)c1Cl [Crizotinib] (partner 1 µM)
Procedure, shortened: as §1

[4] = compound: C[C@]12O[C@H](C[C@]1(O)CO)n1c3ccccc3c3c4c(c5c6ccccc6n2c5c31)CNC4=O [Lestaurtinib] + CC(C)C[C@H](NC(=O)[C@H](Cc1ccccc1)NC(=O)c1cnccn1)B(O)O [Bortezomib] (partner 0.002 µM)
Procedure, shortened: as §1

Row | Cell Line | relative viability ([1]; first compound 0.2 µM) | relative viability ([1]; first compound 0.6325 µM) | relative viability ([1]; first compound 2 µM) | relative viability ([1]; first compound 6.325 µM) | relative viability ([1]; first compound 20 µM) | relative viability ([2]; first compound 0.2 µM) | relative viability ([2]; first compound 0.6325 µM) | relative viability ([2]; first compound 2 µM) | relative viability ([2]; first compound 6.325 µM) | relative viability ([2]; first compound 20 µM) | relative viability ([3]; first compound 0.04 µM) | relative viability ([3]; first compound 0.1265 µM) | relative viability ([3]; first compound 0.4 µM) | relative viability ([3]; first compound 1.265 µM) | relative viability ([3]; first compound 4 µM) | relative viability ([4]; first compound 0.005 µM) | relative viability ([4]; first compound 0.01581 µM) | relative viability ([4]; first compound 0.05 µM) | relative viability ([4]; first compound 0.1581 µM) | relative viability ([4]; first compound 0.5 µM)
1 | NCI-H650 | 0.431 | 0.33 | 0.345 | 0.322 | 0.356 | 0.43 | 0.442 | 0.465 | 0.45 | 0.449 | 0.707 | 0.522 | 0.688 | 0.373 | 0.382 | 0.651 | 1.03 | 0.678 | 0.452 | 0.314
2 | BEN | 0.504 | 0.531 | 0.511 | 0.411 | 0.518 | 0.268 | 0.293 | 0.285 | 0.214 | 0.257 | 0.81 | 0.722 | 0.713 | 0.979 | 0.685 | 0.74 | 0.998 | 0.637 | 0.74 | 0.328
3 | SW 1573 | 0.444 | 0.459 | 0.516 | 0.366 | 0.347 | 0.397 | 0.412 | 0.355 | 0.363 | 0.398 | 0.881 | 0.754 | 0.728 | 0.673 | 0.622 | 1.2 | 1.05 | 0.842 | 0.916 | 0.727
4 | ChaGo-K-1 | 0.956 | 0.954 | 0.84 | 0.719 | 0.479 | 0.517 | 0.493 | 0.459 | 0.3 | 0.271 | 1.2 | 1.04 | 1.17 | 0.836 | 0.608 | 0.944 | 1.51 | 0.931 | 0.718 | 0.5
5 | NCI-H1755 | 0.432 | 0.454 | 0.458 | 0.333 | 0.409 | 0.636 | 0.642 | 0.63 | 0.505 | 0.61 | 0.83 | 0.772 | 0.922 | 0.831 | 0.48 | 1.01 | 0.95 | 0.938 | 0.455 | 0.371
6 | NCI-H2023 | 0.454 | 0.386 | 0.495 | 0.235 | 0.332 | 0.414 | 0.488 | 0.439 | 0.396 | 0.383 | 0.75 | 0.667 | 0.658 | 0.636 | 0.512 | 1.03 | 1.11 | 0.731 | 0.65 | 0.108
7 | LC-2-ad | 0.526 | 0.483 | 0.488 | 0.333 | 0.481 | 0.632 | 0.584 | 0.671 | 0.555 | 0.605 | 0.441 | 0.427 | 0.464 | 0.413 | 0.263 | 0.966 | 1.2 | 0.882 | 0.407 | 0.329
8 | NCI-H1666 | 0.68 | 0.645 | 0.624 | 0.521 | 0.672 | 0.55 | 0.596 | 0.589 | 0.522 | 0.584 | 0.894 | 0.971 | 0.977 | 0.918 | 0.993 | 0.87 | 1.25 | 0.969 | 0.765 | 0.35
